Assays:
[1] = Biodistribution in plasma and brain after single oral dose in female CB17 SCID mice; type: in vivo; conditions: mouse
Experimental: Female non-tumor bearing Fox Chase CB17 SCID mice were orally administered a single dose as specified in Table B1.
Brain tissues were excised and plasma was collected from all the animals receiving Compound I, or tucatinib at 1 hour, 4 hours, and 8 hours post-administration. Tucatinib was used as a reference agent. Tucatinib is a clinically approved therapy for HER2 positive breast cancer patients with brain metastases. The harvested brains were rinsed in ice-cold phosphate-buffered saline and weighed. All plasma and brain samples were stored at approximately −80° C. until thawed for LC-MS/MS analysis.
Prior to analysis, brain tissues were homogenized 1:5 with phosphate buffer. Average free brain-to-free plasma ratio (Kp,uu) was calculated from individual mice by using total concentration values determined in the brain and plasma at individual time points, or by calculating the area under the curve (AUC) and converting the values to free concentration (or AUC) with in vitro binding parameters determined in the brain (fu,b) and plasma (fu,p) as follows:
Kp,uu=Brain Concentration (or AUC)*fu,b/Plasma Concentration (or AUC)*fu,p.
Free fraction in the brain (fu,b) and in plasma (fu,p) was determined with equilibrium dialysis as follows: The brain tissue homogenate or plasma from the mice were spiked to yield a final concentration of 1 μM Compound I, or 5 μM tucatinib. Compound I and tucatinib were incubated in equilibrium dialysis plate on a shaking incubator at 37° C. with 5% CO2 at 450 rpm for 8 hours and 24 hours, respectively. Following the incubation, aliquots of the matrix and the buffer samples were sampled and the concentration of Compound I, or tucatinib were determined.
where fu,b,d is fraction unbound determined with 20% brain homogenate.

[2] = tested on: Ba/F3 cells expressing EGFR_G724S; assay: Cell viability (CellTiter-Glo); type: cell-based; conditions: Mus musculus, BaF3; 72 hours; average ± standard deviation; read-out: Absolute EC50 (50% growth)
Experimental: (§1) A cell-based assay was used to evaluate the potency of Compound I on cells where the growth of the cells is either driven by EGFR wild type (WT) or cells comprising atypical mutant EGFR proteins. Cell viability was assessed following treatment with compounds and the assay developed with CellTiterGlo (CTG) reagent that measures ATP levels in cells. Compound I was dissolved in DMSO to generate a 10 mM stock solution. Dosing solutions were prepared by serial dilution in DMSO followed by dilution in complete media to result in a 0.4% DMSO in the assay. Ba/F3 cells expressing EGFR mutants EGFR_G719S, EGFR_G724S, EGFR_L718Q, EGFR_L718V, EGFR_L858R/1L718Q, EGFR_L858R/1L718V, EGFR_del19/L792K. EGFR_del19/G796S were generated following co-transfection of the EGFR mutant of interest with PhiC31 integrase. Two days following transfection, the media was changed and replaced with media lacking mIL3 with the addition of human EGF (hEGF) as well as puromycin to select stable cell lines. After the cell lines were established genomic DNA (gDNA) was extracted to confirm the sequence of the construct of interest. The culture Media for Ba/F3 EGFR mutants was RPMI+10% FBS+2 mM L-Glut±10 ng/ml hEGF+0.5 pig/ml puromycin. The following reagents were used to conduct the assays: RPMI1640 with phenol red (Corning, Cat #: 15-040-CV); Fetal Bovine Serum (FBS) (Omega Scientific, Cat #: FR-11); Human Epidermal Growth Factor (hEGF) (Cell Signaling Cat #8916SC); L-Glutamine (Corning, Cat #: 25-005-CI); Puromycin (Gibco, Cat #A11138-03); assay media was the same as culture medium; CellTiter-Glo® 2.0 Cell Viability Assay (Promega, Cat #G9243), DMSO (Sigma, Cat #: D2660). The following equipment was used to conduct the assays: Bravo Liquid Handler (Agilent #G5523BA); and the following supplies: 96-well Non-Sterile Polypropylene V Bottom Plates (Corning, Cat #: 3363); 384-well Sterile White with Flat Clear Bottom Plates (Greiner, 781098); and PerkinElmer TopSeal-A Plus plate seal (Cat. #6050185).
(§2) Ba/F3 cell lines expressing either EGFR WT or mutant proteins were cultured in complete culture media at exponential growth phase for at least one week prior to assay. The different cell suspensions were counted and seeded into 384-well Sterile White Flat Clear Bottom Plates using a Bravo liquid handler, according to the appropriate cell number in 36 μl of media per well as follows: (a) Ba/F3-WT-EGFR: 2000 cells per well of a 384 well plate; (b) Ba/F3-G719S-EGFR: 2000 cells per well of a 384 well plate; (c) Ba/F3 G724S-EGFR: 1000 cells per well of a 384 well plate; (d) Ba/F3-L718Q-EGFR: 1000 cells per well of a 384 well plate; (e) Ba/F3-L718V-EGFR: 1000 cells per well of a 384 well plate; (f) Ba/F3-L858R/L718Q-EGFR: 1000 cells per well of a 384 well plate; (g) Ba/F3-L858R/L718V-EGFR: 1000 cells per well of a 384 well plate; (h) Ba/F3-del19/L792H-EGFR: 1000 cells per well of a 384 well plate; (i) Ba/F3-del19/G796S-EGFR: 1000 cells per well of a 384 well plate.
(§3) Compound I was solubilized in DMSO as 10 mM stock solutions. These were stored as aliquots at −80° C. and used only once after thawing. The highest concentration of Compound I in the final assay plate was 500 nM. To prepare the compound dilutions intermediate dilution plates were prepared using the Bravo liquid handler by performing 12-point ⅓-fold serial dilutions in DMSO to a final concentration of 250-fold the concentration in the final assay plate, followed by a 1/25 dilution into complete assay media. Compound dilutions in media were added to cells (final assay plate) by dispensing 4 μL into cells plated the same day in 36 μl of medium of media. Plates were placed in a 37° C., 5% CO2 incubator. Following 72 hours of incubation, plates were left to equilibrate at room temperature before the addition of 1:1 ratio of CTG 2.0 using the Bravo liquid handler. […]

[3] = tested on: Ba/F3 cells expressing EGFR_L718Q; assay: Cell viability (CellTiter-Glo); type: cell-based; conditions: Mus musculus, BaF3; 72 hours; average ± standard deviation; read-out: Absolute EC50 (50% growth)
Experimental: as §1, §2, §3

[4] = tested on: Ba/F3 cells expressing EGFR_L718V; assay: Cell viability (CellTiter-Glo); type: cell-based; conditions: Mus musculus, BaF3; 72 hours; average ± standard deviation; read-out: Absolute EC50 (50% growth)
Experimental: as §1, §2, §3

[5] = tested on: Ba/F3 cells expressing EGFR_L858R/L718Q; assay: Cell viability (CellTiter-Glo); type: cell-based; conditions: Mus musculus, BaF3; 72 hours; average ± standard deviation; read-out: Absolute EC50 (50% growth)
Experimental: as §1, §2, §3

[6] = tested on: Ba/F3 cells expressing EGFR_L858R/L718V; assay: Cell viability (CellTiter-Glo); type: cell-based; conditions: Mus musculus, BaF3; 72 hours; average ± standard deviation; read-out: Absolute EC50 (50% growth)
Experimental: as §1, §2, §3

[7] = tested on: Ba/F3 cells expressing EGFR_del19/L792H; assay: Cell viability (CellTiter-Glo); type: cell-based; conditions: Mus musculus, BaF3, 72 h, read-out: Absolute EC50 (50% growth)
Experimental: as §1, §2, §3

## C=CC(=O)Nc1cc(Nc2cc(N3OCC[C@@H]3c3cc(F)cc(F)c3)ncn2)c(OC)cc1N1CCC(N2CCN(C3CC3)CC2)CC1 [Compound I, N-[2-[4-(4-cyclopropyl-1-piperazinyl)-1-piperidinyl]-5-[[6-[(3R)-3-(3,5-difluorophenyl)-2-isoxazolidinyl]-4-pyrimidinyl]amino]-4-methoxyphenyl]-2-propenamide]
[1]; oral 3 mg/kg
  Bioavailability profile in plasma and brain: excellent bioavailability profile
[1]; oral 3 mg/kg, 8 h
  Unbound brain concentration: below the limit of quantitation (BLOQ)
[1]; oral, 1 h and 4 h, 3 mg/kg Compound I vs 50 mg/kg tucatinib
  Unbound brain concentration compared to tucatinib: much higher unbound brain concentration
[1]; oral, 8 h, 3 mg/kg Compound I vs 50 mg/kg tucatinib
  Unbound plasma concentration relative to tucatinib: about 15 fold
[1]; oral, first eight hours, 3 mg/kg Compound I vs 50 mg/kg tucatinib, brain context
  Total area under the curve (AUC) higher than that of tucatinib: about 800%
[1]; oral, 3 mg/kg Compound I vs 50 mg/kg tucatinib
  Blood-brain barrier penetration compared to tucatinib: superior ability of Compound I to penetrate the blood-brain barrier as compared to tucatinib
[2]
  EC50: 1.4 ± 0.9 nM
[3]
  EC50: 27.1 ± 6.4 nM
[4]
  EC50: 0.9 ± 0.8 nM
[5]
  EC50: 0.8 ± 0.5 nM
[6]
  EC50: 0.2 ± 0.2 nM
[7]
  EC50: 2.5 ± 1.8 nM

Source: patent US20260306491A1, “EGFR INHIBITOR FOR TREATING CANCERS COMPRISING ATYPICAL EGFR MUTATIONS” (ORIC Pharmaceuticals, Inc., priority 2023, published 2026)
